{"source": "patent US20170268001A1", "about": "“RNAS WITH TUMOR RADIO/CHEMO-SENSITIZING AND IMMUNOMODULATORY PROPERTIES AND METHODS OF THEIR PREPARATION AND APPLICATION” (THE UNIVERSITY OF CHICAGO, priority 2016, published 2017)", "molecules": {"B1": {"name": "SL I+II: synthetic RNA of U1 stem loops I and II, SEQ ID NO:19 (nucleic acid)", "chain": "GGGAGATACCATGATCACGAAGGTGGTTTTCCCAGGGCGAGGCTTATCCATTGCACTCCGGATGTGCTGACCCC", "modifications": "listed as DNA, chemistry not given here"}, "B2": {"name": "SL II+III: synthetic RNA of U1 stem loops II and III, SEQ ID NO:20 (nucleic acid)", "chain": "GGGCGAGGCTTATCCATTGCACTCCGGATGTGCTGACCCCTGCGATTTCCCCAAATGTGGGAAACTCGACTGC", "modifications": "listed as DNA, chemistry not given here"}}, "key": {"[1]": {"test_system": "RIG-I^−/− and WT MEFs; shRIG-I D54 and HCT116 tumor cells", "assay": "Caspase 3/7 activity in response to chemotherapy drugs with or without RIG-I", "type": "cell-based", "details": "increasing doses of drug"}, "MC38 tumors [2]": {"test_system": "MC38 tumors", "assay": "MC38 tumor growth after local radiation (20Gy)", "type": "in vivo, mouse", "protocol": "1×10^6 MC38 tumor cells were subcutaneously injected into the flank of mice.\n(§1) Tumor volumes were measured along three orthogonal axes (a, b, and c) and calculated as tumor volume=abc/2. Tumors were allowed to grow for 9-10 days and treated by local radiation (Deng et al., 2014). Briefly, the body was protected with a lead cover and the tumor was exposed, allowing local radiation. Tumors were irradiated using RS-2000 Biological Irradiator (RAD SOURCE) at the dose of 20Gy with 160 kV and 25 mA. For type I IFN blockade experiments, 200 μg anti-IFAR1 mAb was intratumorally injected on day 0 and 2 after radiation. For HMGB-1 blockade experiments, 200 μg anti-HMGB-1 mAb (clone 3B1, generated by inventors) was administered i.p. on day 0 and 3 after radiation. For CD8^+ T cell depletion experiments, 300 μg anti-CD8 mAb (Clone 2.43, BioXCell) was delivered 5 times by i.p. injection every three days starting one day before radiation. For exogenous IFN-β treatment experiments, 1×10^10 viral particles of Ad-IFN-β (Burnette, B., et al., The Efficacy of Radiotherapy Relies upon Induction of Type I Interferon-Dependent Innate and Adaptive Immunity, Cancer Res Apr. 1, 2011 71; 2488; (doi: 10.1158/0008-5472.CAN-10-2820)) were intratumorally administered on day 2 after radiation. Ad-null was used as negative control. […]"}, "MC38 tumors [3]": {"test_system": "MC38 tumors", "assay": "ELISPOT of IFNγ-secreting tumor-specific CD8+ T cells from tumor DLNs", "type": "in vivo, mouse", "protocol": "as §1"}, "[4]": {"target": "T1, RIG-I (DDX58), full-length (Homo sapiens) (UniProt O95786)", "T1 sequence": "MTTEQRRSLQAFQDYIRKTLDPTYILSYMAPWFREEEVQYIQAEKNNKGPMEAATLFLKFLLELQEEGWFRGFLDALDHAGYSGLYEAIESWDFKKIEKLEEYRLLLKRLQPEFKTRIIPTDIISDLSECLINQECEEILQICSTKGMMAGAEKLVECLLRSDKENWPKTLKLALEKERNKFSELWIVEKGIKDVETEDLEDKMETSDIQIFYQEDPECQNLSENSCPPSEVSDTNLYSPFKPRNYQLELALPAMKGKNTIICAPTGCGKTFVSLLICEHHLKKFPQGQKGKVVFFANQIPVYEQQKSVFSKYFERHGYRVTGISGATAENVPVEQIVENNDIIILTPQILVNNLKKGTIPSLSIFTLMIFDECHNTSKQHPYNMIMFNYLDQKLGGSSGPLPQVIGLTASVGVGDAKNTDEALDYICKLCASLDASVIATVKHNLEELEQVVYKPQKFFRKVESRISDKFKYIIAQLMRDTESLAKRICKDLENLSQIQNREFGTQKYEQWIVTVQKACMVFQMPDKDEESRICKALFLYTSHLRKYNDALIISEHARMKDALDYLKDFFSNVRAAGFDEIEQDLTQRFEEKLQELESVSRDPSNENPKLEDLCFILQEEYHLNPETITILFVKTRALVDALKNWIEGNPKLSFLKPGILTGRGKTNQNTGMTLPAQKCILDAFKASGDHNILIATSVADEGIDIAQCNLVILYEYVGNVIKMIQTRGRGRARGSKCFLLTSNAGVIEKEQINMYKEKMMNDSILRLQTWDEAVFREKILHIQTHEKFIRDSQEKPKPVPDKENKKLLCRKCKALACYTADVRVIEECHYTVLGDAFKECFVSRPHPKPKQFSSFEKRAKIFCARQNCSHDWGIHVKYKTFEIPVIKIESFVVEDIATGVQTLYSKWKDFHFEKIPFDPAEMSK", "assay": "pulldown", "details": "CLIP-qPCR, enrichment in RIG-I complexes from irradiated (6 Gy) vs non-irradiated HEK293; also enriched in HCT116"}, "BMDCs": {"test_system": "BMDCs", "assay": "BMDC cross-priming of CD8+ T cells with irradiated tumor cells (ELISPOT)", "type": "cell-based, mouse", "details": "IFN-β 10 ng/ml in co-culture; DMXAA 100 μg/ml, 3 h", "protocol": "Single-cell suspensions of bone marrow cells were obtained from C57BL/6J, STING^−/− and IRF3^−/− mice. Bone marrow from cGAS^−/− mice was kindly provided by Dr. Zhijian J. Chen of University of Texas Southwestern Medical Center, Dallas. The cells were placed in 10 cm petri dish and cultured in RPMI-1640 medium containing 10% fetal bovine serum ([…]), supplemented with 20 ng/ml GM-CSF. Fresh media with GM-CSF was added into culture on day 3. BMDCs (bone marrow-derived dendritic cells) were harvest for stimulation assay on day 7. 8×10^6 MC38-SIY^hi cells were plated into 10 cm cell culture dishes overnight, and then pretreated with 40Gy and incubated for 5 hours. BMDCs were added and co-cultured with MC38-SIY″ cells at the ratio of 1:1 in the presence of fresh GM-CSF for additional 8 hours. Subsequently purified CD11c^+ cells with EasySep™ Mouse CD11c Positive Selection Kit II ([…]) were incubated with isolated CD8^+ T cells from naive 2C mice for three days. For the bypassing assay, 10 ng/ml murine IFN-β was added in the co-culture of BMDCs and tumor cells, or 100 μg/ml DMXAA was added into isolated CD11c^+ cells with additional 3 h incubation. For IFN-β detection, BMDCs were co-cultured with tumor cells at the ratio of 1:1 for additional 8 hours, and 1×10^6 cells/ml purified CD11c^+ cells were seed into 96-well plates for 48 hours. […]"}, "RIG-I": {"target": "T2, RIG-I (Homo sapiens, UniProt O95786)", "T2 construct": "HEK293 cells overexpressing either the full length RIG-I; host or cells: HEK293; HCT116 also for the qRT-PCR validation", "T2 sequence (O95786 1-925)": "T1 sequence", "assay": "HEK293 IFN-beta promoter dual luciferase reporter, RNA stimulation", "type": "cell-based", "details": "1 μg synthetic oligonucleotide, 24 hour stimulation", "protocol": "We also used reporter HEK293 cells as simple technique to evaluate ability of the given RNA to stimulate IFN-beta production in preliminary in vitro experiments. Technically this was performed as follows: RNA stimulation of HEK293 IFN-beta reporter cells HEK293 cells were seeded in a 24-well plate overnight at a density of 1.5×10^5 cells/ml (75,000 cells/well). Cells were co-transfected with 100 ng of plasmid construct (pCAGGS empty vector, pCAGGS-RIG-I full-length, pCAGGS-RIG-I helicase-RD mutant construct, and […] mutant construct), together with 80 ng of a firefly luciferase reporter gene driven by an IFN-beta promoter and 20 ng of a Renilla luciferase (pRL-null) transfection control. Transfections were performed using a cationic lipid agent, Fugene HD (Promega), at a 3:1 lipid:DNA ratio. Twenty-four hours post-transfection, cells were then stimulated with 1 μg RNA* mixed with Fugene HD at 2:1 lipid: RNA ratio for 24 hours. 20 μl cell lysates were collected in opaque 96-well plates and analyzed for IFN-beta-luciferase and Renilla activity using a BioTek Synergy HT plate reader. The transfection efficiency across different wells was normalized by dividing the IFN-beta luciferase activity with the Renilla activity. All values were further normalized to the unstimulated controls in cells transfected with the empty vector. All pCAGGS RIG-I constructs used in this study were generous gifts from Dr. Jenish Patel and Dr. Adolfo Garcia-Sastre of The Icahn School of Medicine at Mount Sinai in New York City. Synthetic RNA comprised of various stem loop regions of the human U1 snRNA were purchased from IDT Oligos as reported in (Bernard et al., 2012). U1 stem loop I sequence: [NT] ID NO:15); U1 stem loop II sequence: [NT] ID NO:16); U1 stem loop III sequence: [NT] ID NO:17); U1 stem loop IV sequence: [NT] ID NO:18); U1 stem loops I and II sequence: [NT] ID NO:19); U1 stem loops II and III sequence: [NT] ID NO:20). In vitro transcribed U1 RNA stimulation: Full length U1 (pT7U1) plasmid was generously provided by Dr. Joan Steitz (Yale School of Medicine, Yale University). […]"}}, "data": [{"molecule": "N.N.[Cl][Pt][Cl]", "note": "[cisplatin]", "values": [{"measurement": "caspase 3/7 activity in response to drug treatment, RIG-I absent or depleted vs control cells", "setting": "[1]", "value": "reduced caspase 3/7 activity"}]}, {"molecule": "Nc1nc2c(ncn2[C@@H]2O[C@@H]3COP(=O)(O)O[C@H]4[C@@H](O)[C@H](n5cnc6c(N)ncnc65)O[C@@H]4COP(=O)(O)O[C@@H]2[C@@H]3O)c(=O)[nH]1", "note": "[2′3′-cGAMP, cyclic [G(2′,5′)pA(3′,5′)p]]", "values": [{"measurement": "synergy with radiation", "setting": "MC38 tumors [2]; STING^−/− mice", "value": "abrogated"}, {"measurement": "tumor burden, combination with radiation compared to either alone", "setting": "MC38 tumors [2]; WT mice, 10 μg intratumorally on day 2 and 6 after 20Gy", "value": "effectively reduce tumor burden"}, {"measurement": "number of tumor-specific IFN-γ-producing CD8+ T cells in DLNs", "setting": "MC38 tumors [3]; combination with radiation vs radiation or 2′3′-cGAMP alone, WT mice", "value": "significantly increased"}, {"measurement": "antitumor CD8+ T cell response induced by combination with radiation", "setting": "MC38 tumors [3]; deficiency of STING in the host", "value": "dampened"}]}, {"molecule": "U1 snRNA (endogenous)", "values": [{"measurement": "binding signal", "setting": "[4]", "value": 6, "unit": "fold"}]}, {"molecule": "Cc1ccc2c(=O)c3cccc(CC(=O)O)c3oc2c1C", "note": "[DMXAA]", "values": [{"measurement": "function of STING^−/− BMDCs (cross-priming)", "setting": "BMDCs", "value": "fails to rescue"}, {"measurement": "function of cGAS^−/− BMDCs (cross-priming)", "setting": "BMDCs", "value": "restored"}]}, {"molecule": "COc1cccc2c1C(=O)c1c(O)c3c(c(O)c1C2=O)C[C@@](O)(C(=O)CO)C[C@@H]3O[C@H]1C[C@H](N)[C@H](O)[C@H](C)O1", "note": "[doxorubicin]", "values": [{"measurement": "caspase 3/7 activity in response to drug treatment, RIG-I absent or depleted vs control cells", "setting": "[1]", "value": "reduced caspase 3/7 activity"}]}, {"molecule": "B1", "values": [{"measurement": "IFN-beta response (reporter activity in HEK293; IFN-b in MEF supernatant)", "setting": "RIG-I", "value": "potent inducers of IFN-beta response"}]}, {"molecule": "B2", "values": [{"measurement": "IFN-beta response (reporter activity in HEK293; IFN-b in MEF supernatant)", "setting": "RIG-I", "value": "potent inducers of IFN-beta response"}]}]}
